Measurements as given in patent publication US7695930B2, “Method for the detection, identification and/or quantification of microoganisms with peptidase activity using phenoxazinone derivatives as enzyme substrates” (Biomerieux, priority 2003, dated 2010).

Key:
Assay in all cases: Leucine-peptidase detection on agar medium (Example 11); for color of the colony: key: B corresponds to fluorescent blue; R corresponds to pink
Type in all cases: cell-based
[1] = system: Candida albicans; for color of the colony: key: B corresponds to fluorescent blue; R corresponds to pink
Experimental: (§1) The detection medium was prepared by mixing 1.4 g of biogelytone (bioMérieux), 0.84 g of meat extract (bioMérieux), 2.24 g of NaCl (Merck), 280 μl of a solution of IPTG (isopropylthio-β-D-galactopyranoside, BIOSYNTH) in water (concentration 10 g/l) and 4.2 g of European agar (bioMérieux).
(§2) The substrate of the invention obtained in Example 2, in which the amino acid is leucine (leucine-9-aminobenzo[a]phenoxazin-5-one or Leu-ABP), or else a substrate of the prior art, which is leucine-aminomethylcoumarin (Leu-AMC, BACHEM), was then added in the following way: 280 ml of osmosed water were added to the medium, and the mixture was melted in a waterbath at 100° C. The mixture was autoclaved for 15 min at 121° C. and cooled to 50° C. in a waterbath.
(§3) The medium was then poured into Petri dishes.
(§4) The coloration of these colonies, the diffusion, and also the intensity of this coloration were noted.
(§5) The results were expressed as intensity of coloration using an arbitrary scale ranging from 0 to 4 as a basis and also as diffusion also using an arbitrary scale ranging from 0 to 4 as a basis.

[2] = system: Citrobacter freundii; for color of the colony: key: B corresponds to fluorescent blue; R corresponds to pink
Experimental: as §1, §2, §3, §4, §5

[3] = system: Enterobacter cloaccae; for color of the colony: key: B corresponds to fluorescent blue; R corresponds to pink
Experimental: as §1, §2, §3, §4, §5

[4] = system: Klebsellia pneumoniae; for color of the colony: key: B corresponds to fluorescent blue; R corresponds to pink
Experimental: as §1, §2, §3, §4, §5

[5] = system: Pseudomonas aeruginosa; for color of the colony: key: B corresponds to fluorescent blue; R corresponds to pink
Experimental: as §1, §2, §3, §4, §5

[6] = system: Serratia marcescens; for color of the colony: key: B corresponds to fluorescent blue; R corresponds to pink
Experimental: as §1, §2, §3, §4, §5

## leucine-9-aminobenzo[a]phenoxazin-5-one [Leu-ABP]
[1]; 24 h, 25 mg/l
  growth diameter: 0.3 mm
[1]; 48 h, 25 mg/l
  color of the colony: R
  growth diameter: 0.5 mm
  intensity of coloration, scale 0 to 4: 0.25
[1]; 48 h, 50 mg/l
  growth diameter: 0.3 mm
[2]; 24 h, 25 mg/l
  color of the colony: R
  growth diameter: 0.7 mm
  intensity of coloration, scale 0 to 4: 1.5
[2]; 24 h, 50 mg/l
  color of the colony: R
  growth diameter: 0.7 mm
  intensity of coloration, scale 0 to 4: 1.5
[2]; 24 h, 100 mg/l
  color of the colony: R
  growth diameter: 0.7 mm
  intensity of coloration, scale 0 to 4: 0.75
[2]; 24 h, 200 mg/l
  color of the colony: R
  growth diameter: 0.8 mm
  intensity of coloration, scale 0 to 4: 1
[2]; 24 h, 400 mg/l
  color of the colony: R
  growth diameter: 0.7 mm
  intensity of coloration, scale 0 to 4: 2
[2]; 48 h, 25 mg/l
  color of the colony: R
  growth diameter: 0.7 mm
  intensity of coloration, scale 0 to 4: 2.5
[2]; 48 h, 50 mg/l
  color of the colony: R
  growth diameter: 0.7 mm
  intensity of coloration, scale 0 to 4: 2.5
[2]; 48 h, 100 mg/l
  color of the colony: R
  growth diameter: 0.7 mm
  intensity of coloration, scale 0 to 4: 1.5
[2]; 48 h, 200 mg/l
  color of the colony: R
  growth diameter: 0.8 mm
  intensity of coloration, scale 0 to 4: 2
[2]; 48 h, 400 mg/l
  color of the colony: R
  growth diameter: 0.7 mm
  intensity of coloration, scale 0 to 4: 2
[3]; 24 h, 25 mg/l
  color of the colony: R
  growth diameter: 0.7 mm
  intensity of coloration, scale 0 to 4: 1.5
[3]; 24 h, 50 mg/l
  color of the colony: R
  growth diameter: 0.5 mm
  intensity of coloration, scale 0 to 4: 2.5
[3]; 24 h, 100 mg/l
  color of the colony: R
  growth diameter: 1 mm
  intensity of coloration, scale 0 to 4: 3
[3]; 24 h, 200 mg/l
  color of the colony: R
  growth diameter: 1.5 mm
  intensity of coloration, scale 0 to 4: 3
[3]; 24 h, 400 mg/l
  color of the colony: R
  growth diameter: 1.5 mm
  intensity of coloration, scale 0 to 4: 3
[3]; 48 h, 25 mg/l
  color of the colony: R
  growth diameter: 0.7 mm
  intensity of coloration, scale 0 to 4: 2.5
[3]; 48 h, 50 mg/l
  color of the colony: R
  growth diameter: 0.5 mm
  intensity of coloration, scale 0 to 4: 3
[3]; 48 h, 100 mg/l
  color of the colony: R
  growth diameter: 1.3 mm
  intensity of coloration, scale 0 to 4: 3
[3]; 48 h, 200 mg/l
  color of the colony: R
  growth diameter: 1.5 mm
  intensity of coloration, scale 0 to 4: 3
[3]; 48 h, 400 mg/l
  color of the colony: R
  growth diameter: 1.7 mm
  intensity of coloration, scale 0 to 4: 3
[4]; 24 h, 25 mg/l
  color of the colony: R
  growth diameter: 1.8 mm
  intensity of coloration, scale 0 to 4: 1.5
[4]; 24 h, 50 mg/l
  color of the colony: R
  growth diameter: 1.7 mm
  intensity of coloration, scale 0 to 4: 1.5
[4]; 24 h, 100 mg/l
  color of the colony: R
  growth diameter: 1.7 mm
  intensity of coloration, scale 0 to 4: 1.5
[4]; 24 h, 200 mg/l
  color of the colony: R
  growth diameter: 1.7 mm
  intensity of coloration, scale 0 to 4: 2
[4]; 24 h, 400 mg/l
  color of the colony: R
  growth diameter: 1.7 mm
  intensity of coloration, scale 0 to 4: 2.5
[4]; 48 h, 25 mg/l
  color of the colony: R
  growth diameter: 1.8 mm
  intensity of coloration, scale 0 to 4: 2
[4]; 48 h, 50 mg/l
  color of the colony: R
  growth diameter: 1.7 mm
  intensity of coloration, scale 0 to 4: 2.5
[4]; 48 h, 100 mg/l
  color of the colony: R
  growth diameter: 1.7 mm
  intensity of coloration, scale 0 to 4: 1.5
[4]; 48 h, 200 mg/l
  color of the colony: R
  growth diameter: 1.7 mm
  intensity of coloration, scale 0 to 4: 1
[4]; 48 h, 400 mg/l
  color of the colony: R
  growth diameter: 1.8 mm
  intensity of coloration, scale 0 to 4: 1
[5]; 24 h, 25 mg/l
  growth diameter: 2 mm
[5]; 24 h, 50 mg/l
  color of the colony: R
  growth diameter: 2 mm
  intensity of coloration, scale 0 to 4: 0.75
[5]; 24 h, 100 mg/l
  color of the colony: R
  growth diameter: 2 mm
  intensity of coloration, scale 0 to 4: 0.75
[5]; 24 h, 200 mg/l
  color of the colony: R
  growth diameter: 2 mm
  intensity of coloration, scale 0 to 4: 0.5
[5]; 24 h, 400 mg/l
  color of the colony: R
  growth diameter: 2 mm
  intensity of coloration, scale 0 to 4: 0.5
[5]; 48 h, 25 mg/l
  color of the colony: R
  growth diameter: 2 mm
  intensity of coloration, scale 0 to 4: 1
[5]; 48 h, 50 mg/l
  color of the colony: R
  growth diameter: 2 mm
  intensity of coloration, scale 0 to 4: 2.5
[5]; 48 h, 100 mg/l
  color of the colony: R
  growth diameter: 2 mm
  intensity of coloration, scale 0 to 4: 2.5
[5]; 48 h, 200 mg/l
  color of the colony: R
  growth diameter: 2 mm
  intensity of coloration, scale 0 to 4: 2
[5]; 48 h, 400 mg/l
  color of the colony: R
  growth diameter: 2 mm
  intensity of coloration, scale 0 to 4: 0.5
[6]; 24 h, 25 mg/l
  color of the colony: R
  growth diameter: 0.5 mm
  intensity of coloration, scale 0 to 4: 0.5
[6]; 24 h, 50 mg/l
  color of the colony: R
  growth diameter: 0.4 mm
  intensity of coloration, scale 0 to 4: 1
[6]; 24 h, 100 mg/l
  color of the colony: R
  growth diameter: 0.4 mm
  intensity of coloration, scale 0 to 4: 0.25
[6]; 24 h, 200 mg/l
  growth diameter: 0.4 mm
[6]; 24 h, 400 mg/l
  growth diameter: 0.4 mm
[6]; 48 h, 25 mg/l
  color of the colony: R
  growth diameter: 0.7 mm
  intensity of coloration, scale 0 to 4: 2.5
[6]; 48 h, 50 mg/l
  color of the colony: R
  growth diameter: 0.5 mm
  intensity of coloration, scale 0 to 4: 3
[6]; 48 h, 100 mg/l
  color of the colony: R
  growth diameter: 0.5 mm
  intensity of coloration, scale 0 to 4: 1.5
[6]; 48 h, 200 mg/l
  color of the colony: R
  growth diameter: 0.5 mm
  intensity of coloration, scale 0 to 4: 1
[6]; 48 h, 400 mg/l
  color of the colony: R
  growth diameter: 0.5 mm
  intensity of coloration, scale 0 to 4: 0.5
